Here are results for 17 compounds from US7022699B2, “Cyclohexenyl phenyl diazepines vasopressin and oxytocin receptor modulators” (Wyeth, priority 2001, dated 2006).

Molecules are shown by their SMILES.

T1 sequence (P30518 whole entry): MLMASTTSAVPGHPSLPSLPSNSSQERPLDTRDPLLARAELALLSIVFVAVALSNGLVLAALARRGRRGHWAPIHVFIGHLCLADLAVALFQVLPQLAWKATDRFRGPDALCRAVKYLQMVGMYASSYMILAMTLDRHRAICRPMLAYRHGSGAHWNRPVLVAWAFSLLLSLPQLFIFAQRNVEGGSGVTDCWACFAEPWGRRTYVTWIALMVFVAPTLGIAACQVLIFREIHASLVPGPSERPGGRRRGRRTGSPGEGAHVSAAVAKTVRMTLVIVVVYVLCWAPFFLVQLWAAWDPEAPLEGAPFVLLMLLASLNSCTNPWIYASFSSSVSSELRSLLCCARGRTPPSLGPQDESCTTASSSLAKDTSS

The assay has as its target T1, human vasopressin V2 receptor subtype (Homo sapiens, UniProt P30518).
T1 construct: host or cells: CHO cells, stably transfected (pZeoSV vector); membranes
As to the kind of experiment: Vasopressin binding in CHO cell membranes expressing human vasopressin V2 subtype receptors ([3H]arginine vasopressin). The following applies: 100 nM, values without parentheses. The text has this:
Vasopressin Binding in Chinese Hamster Ovary Cell Membranes Expressing Human Vasopressin V2 Subtype Receptors
Chinese Hamster Ovary (CHO) cells stably transfected with the human V2 subtype receptors were obtained from M. Thibonnier, Case Western Reserve University School of Medicine, Cleveland, Ohio.
A. Passaging and Amplification of Cells:
CHO cells transfected with the human vasopressin V2 subtype receptors obtained from M. Thibonnier (pZeoSV vector) are allowed to grow to confluency (approx. >90%) in T-150 flasks under sterile conditions, in a cell culture medium of F-12 Nutrient Mixture (HAM) with L-glutamine (Gibco Cat. #11765-054) containing 15 mM HEPES (Gibco Cat. #15630-080), 1% antibiotic/antimycotic (add 5 mL 100×, Gibco Cat. #15240-062 per 500 mL F-12), 250 μg/mL Zeocin (add 1.25 mL of 100 mg/mL Invitrogen R-250-01 per 500 mL F-12) and 10% Fetal Bovine Serum (Qualified, heat inactivated, Gibco Cat. #16140-063). The medium is removed by aspiration and the cells washed with 10 mL of Hank's Balanced Salt solution (Gibco Cat. #14175-095). The salt solution is removed by aspiration and the cells trypsinized with 5 mL of trypsin-EDTA (0.05% trypsin, 0.53 mM EDTA-4Na, Gibco Cat. #25300-070) for 1 min. The trypsin is removed by aspiration and the cells dislodged by tapping. Cell Culture medium (e.g. 30 mL for 1:30 split) is immediately added and mixed well to inactivate trypsin. 1 mL of detached cells is added to new culture flasks containing fresh Cell Culture medium (e.g. into 25 mL per T-150 flask), and mixed gently. The cells are incubated at 37° C. in 5% CO2. The medium is changed at 3 to 4 day interval (or as appropriate). The cells grow to confluency (approx. >75%–95%) within 7–8 days. All steps are done under sterile conditions. B. Membrane Preparation: The cells are washed twice gently with Hank's Balanced Salt solution (e.g. use 10 mL per T-150 flask). The excess solution is removed and the cells bathed for 15–30 min. in an enzyme-free Cell Dissociation Buffer (e.g. use 8 mL Hank's Based, Gibco Cat. # 13150-016 per T-150 flask) until cells are loosened. The contents are transferred to centrifuge tubes (50 mL size) kept in ice bath. All subsequent steps are done at 4° C. The tubes are centrifuged at 300×g for 15 min (1380 rpm on SORVAL, Model RT6000D, using rotor for 50 mL tubes). The supernatant is discarded and the cells suspended in homogeneizing buffer (10 mM Tris-HCl containing 0.25 M sucrose and 1 mM EDTA, pH 7.4) ensuring that the volume of the buffer is about ten times the volume of the cell pellet. The cells are pooled into a centrifuge tube (50 mL) and homogenized with Polytron at setting 6 for 10 sec. The homogenate is transferred into a Potter-Elvjehm homogeneizer and homogenized with 3 strokes. The homogenate is centrifuged at 1500×g for 60 min at 4° C. (3100 rpm using SORVAL, model RT6000D, using rotor for 50 mL tubes). The pellet is discarded. The supernatant is centrifuged at 100,000×g for 60 min. at 4° C. (Beckman L8-80M ultracentrifuge; spin at 37,500 rpm with rotor type 70 Ti for 50 mL tubes; 38,000 rpm with type 80Ti for 15 mL tubes; or 35,800 rpm with rotor type 45Ti). The supernantant is discarded and the pellet suspended in 3 to 4 mL of Tris buffer (50 mM TRIS-HCl, pH 7.4). The protein content is estimated by the Bradford or Lowry method. The volume of the membrane suspension is adjusted with the membrane buffer (50 mM Tris-HCl containing 0.1% BSA and 0.1 mM PMSF) to give 3.0 mg/mL (or as appropriate) of protein. The membranes are aliquoted and stored at −70° C. C. Radioligand Binding Assay:
In wells of a 96-well format microtiter plate, is added 90, 110 or 130 μL (to make up a final volume of 200 μL) of assay buffer containing 50 mM of Tris-HCl (pH 7.4), […], 1 mg % aprotinin, 1 mg % leupeptin, 2 mg % 1,10-phenanthroline, 10 mg % trypsin inhibitor, and 0.1 mM PMSF. The inhibitors are added on the day of the experiment. […]
Regarding `CC1(C)C=C(c2ccc(C(=O)N3Cc4cccn4Cc4ccccc43)cc2)CC(C)(C)C1` [Example 23, (10,11-Dihydro-5H-pyrrolo[2,1-c][1,4]benzodiazepin-10-yl)-[4-(3,3,5,5-tetramethyl-cyclohex-1-en-1-yl)-phenyl]-methanone], the inhibition at 0.1 µM worked out at 18%.
To `O=C1C=C(c2ccc(C(=O)N3Cc4cccn4Cc4ccccc43)cc2)CCC1` [Example 24, 3-[4-(10,11-Dihydro-5H-pyrrolo[2,1-c][1,4]benzodiazepine-10-carbonyl)-phenyl]-cyclohex-2-en-1-one] belongs 29%.
The same measure for `O=C(c1ccc(C2=CC(O)CCC2)cc1)N1Cc2cccn2Cc2ccccc21` (centres unmarked) [Example 25, (10,11-Dihydro-5H-pyrrolo[2,1-c][1,4]benzodiazepin-10-yl)-[4-(3-hydroxy-cyclohex-1-en-1-yl)-phenyl]-methanone]: 39%.
The same measure for `CC1=C(c2ccc(C(=O)N3Cc4cccn4Cc4ccccc43)cc2)CCCC1=O` [Example 26, 3-[4-(10,11-Dihydro-5H-pyrrolo[2,1-c][1,4]benzodiazepine-10-carbonyl)-phenyl]-2-methyl-cyclohex-2-en-1-one]: 58%; for `CC1=C(c2ccc(C(=O)N3Cc4cccn4Cc4ccccc43)cc2)CCCC1O` (centres unmarked) [Example 27, (10,11-Dihydro-5H-pyrrolo[2,1-c][1,4]benzodiazepin-10-yl)-[4-(3-hydroxy-2-methyl-cyclohex-1-en-1-yl)-phenyl]-methanone]: 58%; for `Cc1cc(C(=O)N2Cc3cccn3Cc3ccccc32)ccc1C1=CCCCC1C` (centres unmarked) [Example 29, (10,11-Dihydro-5H-pyrrolo[2,1-c][1,4]benzodiazepin-10-yl)-[3-methyl-4-(6-methyl-cyclohex-1-en-1-yl)-phenyl]-methanone]: 13%.
On to `Cc1cc(C(=O)N2Cc3cccn3Cc3ccccc32)ccc1C1=CCCCC1(C)C` [Example 30, (10,11-Dihydro-5H-pyrrolo[2,1-c][1,4]benzodiazepin-10-yl)-[4-(6,6-dimethyl-cyclohex-1-en-1-yl)-3-methyl-phenyl]-methanone], for which the inhibition at 0.1 µM came to 13%.
The same measure for `CC1=C(c2ccc(C(=O)N3Cc4cccn4Cc4ccccc43)cc2C)C(C)CCC1` (centres unmarked) [Example 33, (10,11-Dihydro-5H-pyrrolo[2,1-c][1,4]benzodiazepin-10-yl)-[4-(2,6-dimethyl-cyclohex-1-en-1-yl)-3-methyl-phenyl]-methanone]: 0%.
The same measure for `Cc1cc(C(=O)N2Cc3cccn3Cc3ccccc32)ccc1C1=CCCCC1C(C)(C)C` (centres unmarked) [Example 34, (10,11-Dihydro-5H-pyrrolo[2,1-c][1,4]benzodiazepin-10-yl)-[4-(6-tert-butyl-cyclohex-1-en-1-yl)-3-methyl-phenyl]-methanone]: 4%; for `Cc1cc(C(=O)N2Cc3cccn3Cc3ccccc32)ccc1C1=CCC2CCC1C2` (centres unmarked) [Example 35, (10,11-Dihydro-5H-pyrrolo[2,1-c][1,4]benzodiazepin-10-yl)-(4-bicyclo[3.2.1]oct-2-en-2-yl-3-methyl-phenyl)-methanone]: 18%.
The same measure for `Cc1cc(C(=O)N2Cc3cccn3Cc3ccccc32)ccc1C1=CCC2CC1C2(C)C` (centres unmarked) [Example 36, (10,11-Dihydro-5H-pyrrolo[2,1-c][1,4]benzodiazepin-10-yl)-[4-(6,6-dimethyl-bicyclo[3.1.1]hept-2-en-2-yl)-3-methyl-phenyl]-methanone]: 3%; for `Cc1cc(C(=O)N2Cc3cccn3Cc3ccccc32)ccc1C1=CC(C)(C)CC(C)(C)C1` [Example 37, (10,11-Dihydro-5H-pyrrolo[2,1-c][1,4]benzodiazepin-10-yl)-[3-methyl-4-(3,3,5,5-tetramethyl-cyclohex-1-en-1-yl)-phenyl]-methanone]: 20%.
For `COc1cccc(C2=C(c3ccc(C(=O)N4Cc5cccn5Cc5ccccc54)cc3C)CCCC2)c1` [Example 38, (10,11-Dihydro-5H-pyrrolo[2,1-c][1,4]benzodiazepin-10-yl)-{4-[2-(3-methoxy-phenyl)-cyclohex-1-en-1-yl]-3-methyl-phenyl}-methanone], the inhibition at 0.1 µM was -9%.
The same measure for `Cc1cc(C(=O)N2Cc3cccn3Cc3ccccc32)ccc1C1=CC(=O)CCC1` [Example 39, 3-[4-(10,11-Dihydro-5H-pyrrolo[2,1-c][1,4]benzodiazepine-10-carbonyl)-2-methyl-phenyl]-cyclohex-2-en-1-one]: 38%; for `Cc1cc(C(=O)N2Cc3cccn3Cc3ccccc32)ccc1C1=CC(O)CCC1` (centres unmarked) [Example 40, (10,11-Dihydro-5H-pyrrolo[2,1-c][1,4]benzodiazepin-10-yl)-[4-(3-hydroxy-cyclohex-1-en-1-yl)-3-methyl-phenyl]-methanone]: 48%; for `CO[C@@H]1CCCC(c2ccc(C(=O)N3Cc4cccn4Cc4ccccc43)cc2C)=C1C` [Example 44, 10-{4-[(3R)-3-Methoxy-2-methylcyclohex-1-en-1-yl]-3-methylbenzoyl}-10,11-dihydro-5H-pyrrolo[2,1-c][1,4]benzodiazepine]: 86%.
To `CC1=C(c2ccc(C(=O)N3Cc4cccn4Cc4ccccc43)cc2C)CCCC1N` (centres unmarked) [Example 45, [4-(3-Amino-2-methyl-cyclohex-1-en-1-yl)-3-methyl-phenyl]-(10,11-dihydro-5H-pyrrolo[2,1-c][1,4]benzodiazepin-10-yl)-methanone] belongs 27%.
